Results published in paper PMC10115881, “Disrupting the α-synuclein-ESCRT interaction with a peptide inhibitor mitigates neurodegeneration in preclinical models of Parkinson’s disease” (Nature Communications, 2023).

How the values were obtained:
LAMP1 = LAMP1 fluorescence in rat cortical neurons; format: cell-based; details: A53T a-syn
Excerpt: Pregnant rats (E17) of the Sprague-Dawley strain were purchased from Envigo. Embryos were surgically removed from the mothers and cortices dissected in Hanks Balanced salt solution (Gibco). The meninges were removed, and cells were dissociated using a papain dissociation system (Worthington) before being resuspended in Neurobasal medium A supplemented with antibiotic-antimycotic solution (Gibco), L-glutamine substitute (GlutaMAX™; Gibco) and factor B27 (Gibco). […]
After fixation, cells were permeabilized with 0.2% Triton-X-100 for 15 min, washed three times with PBS and then incubated with blocking solution (1% BSA, 22.52 mg/mL glycine, 0.1% Tween-20 in PBS or 0.4% saponin, 1% BSA, and 5% goat or donkey serum in PBS) for 1 h. […] Following another three washes with PBS, nuclei were counterstained with DAPI (ThermoFisher) and then coverslips were mounted on slides using Dako fluorescence mounting medium (Agilent) and sealed using clear nail varnish.
Confocal images of primary cortical neurons, iPSC-derived dopaminergic neurons, and LAMP1 staining within the SN were processed using Imaris software (Oxford instruments). […] Mean pixel intensity per GFP^+ cell (for experiments using GFP-tagged peptides) or RFP^+ cell (for experiments using RFP-tagged peptides) was calculated for a-syn or LAMP1 signal using the software’s surfaces module. […]

A53T a-syn or EV rats = assay: AAV-A53T a-syn rat model, high titer, TH+ neurons; format: in vivo; details: 6 weeks
Excerpt: Third, we used a preclinical rat model of PD in which SN degeneration is induced by AAV vector-mediated expression of human mutant A53T a-syn[18],[45]–[48] (Fig. 5A). […] (Fig. 5B, C). […] Furthermore, overexpression of A53T a-syn was associated with a reduction in LAMP1 positive puncta in the SN which was restored with PDpep1.3 (Figs. 5E, S5E). […] Forelimb asymmetry in the cylinder test is a behavioral impairment associated with SN degeneration which models bradykinesia, the cardinal motor abnormality in PD[49].
Adult female Sprague-Dawley rats (250–280 g; Envigo) were pair-housed in cages with wood bedding and had access to food and water ad libitum. […]
Immunofluorescence staining for a-syn, pS129 a-syn, TH, and LAMP1 was performed by washing free-floating sections with PBS-T (0.1% Tween-20 or 0.2% Triton-X-100) three times for 10 min each at room temperature. […] Sections were then mounted onto glass slides and allowed to dry and then Dako fluorescence mounting medium (Agilent) was applied, followed by coverslips.
Confocal images of immunofluorescent staining of midbrain sections were processed using HALO software (Indica Labs), which is a well validated tool for automatic quantification of neurons in brain tissue sections[70]–[72]. […] Levels of total a-syn were assessed in this ROI by measuring the area and intensity of anti-a-syn staining. […]

DEEIERQLKALG [PDpep1.3]
Effect on LAMP1, neurons (LAMP1): restored LAMP1 levels
Effect on neurodegeneration in SN (A53T a-syn or EV rats): neurodegeneration was mitigated
